Consider six molecules from US9771369B2, “Compounds and methods for kinase modulation, and indications therefor” (Plexxikon Inc., priority 2014, dated 2017).

For one assay, the target named is c-Kit kinase (Homo sapiens (Human), UniProt P10721). The assay is described as follows: c-Kit biochemical assay (AlphaScreen kinase activity). In outline:
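AlphaScreen: c-Kit phosphorylates biotin-(E4Y)3 (100 nM) at 10 μM ATP, pH 7.2 HEPES buffer with Mg/Mn, 5% DMSO, 1 h room temperature; streptavidin donor and PY30 acceptor beads detect product. Second format: 100 μM ATP, 30 nM biotin-(E4Y)10, pH 7.5. IC50 from 8-point 1:3 dilution curves.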

In assay [1] the test system is BaF3-FL KIT D816V or BaF3-FL KIT V560G/D816V cell line. The assay is described as follows: Cell-based assays of c-Kit mutant kinase activity (cell proliferation, ATPlite). Particulars: at least one of the c-kit cell assays of Example 7. In outline: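 BaF3 cells dependent on transfected full-length human KIT D816V or V560G/D816V (pCI-Neo, CMV promoter) were seeded at 1×10^4 cells/well and exposed to 8-point 1:3 dilutions from 10 μM top (0.2% DMSO) for three days at 37° C. ATPlite luminescence gave cell number; IC50 from concentration-response.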

c-Kit kinase, sequence (P10721 26-976): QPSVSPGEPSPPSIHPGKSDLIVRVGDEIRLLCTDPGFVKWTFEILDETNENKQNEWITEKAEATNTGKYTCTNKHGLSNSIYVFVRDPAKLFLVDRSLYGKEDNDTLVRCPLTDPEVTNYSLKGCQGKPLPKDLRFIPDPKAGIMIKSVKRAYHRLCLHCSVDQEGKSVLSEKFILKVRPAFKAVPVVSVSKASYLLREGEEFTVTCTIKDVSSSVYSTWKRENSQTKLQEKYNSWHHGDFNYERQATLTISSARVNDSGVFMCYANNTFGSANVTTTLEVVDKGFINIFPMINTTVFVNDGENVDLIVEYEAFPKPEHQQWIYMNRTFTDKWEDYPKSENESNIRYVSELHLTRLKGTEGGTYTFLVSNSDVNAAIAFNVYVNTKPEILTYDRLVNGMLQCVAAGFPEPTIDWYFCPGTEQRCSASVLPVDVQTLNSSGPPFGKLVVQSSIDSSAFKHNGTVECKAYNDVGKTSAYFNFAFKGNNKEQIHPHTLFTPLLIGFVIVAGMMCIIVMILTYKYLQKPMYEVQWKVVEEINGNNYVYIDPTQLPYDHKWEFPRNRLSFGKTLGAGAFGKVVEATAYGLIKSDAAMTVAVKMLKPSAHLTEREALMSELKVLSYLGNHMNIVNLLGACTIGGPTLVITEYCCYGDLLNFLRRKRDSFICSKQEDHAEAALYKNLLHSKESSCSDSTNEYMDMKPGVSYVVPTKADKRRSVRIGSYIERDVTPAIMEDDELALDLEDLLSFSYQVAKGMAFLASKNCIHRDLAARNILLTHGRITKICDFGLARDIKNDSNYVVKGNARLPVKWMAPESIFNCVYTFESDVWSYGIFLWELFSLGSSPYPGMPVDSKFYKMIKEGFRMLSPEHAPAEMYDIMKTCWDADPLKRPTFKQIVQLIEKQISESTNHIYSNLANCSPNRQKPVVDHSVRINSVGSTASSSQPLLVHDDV

As to `CCOc1ccc(-c2[nH]c(C3(C)CCN(c4ncnc5[nH]c(-c6ccc(OCC(=O)O)cc6)cc45)CC3)nc2C)cc1C` [P-3244, 2-[4-[4-[4-[5-(4-ethoxy-3-methyl-phenyl)-4-methyl-1H-imidazol-2-yl]-4-methyl-1-piperidyl]-7H-pyrrolo[2,3-d]pyrimidin-6-yl]phenoxy]acetic acid], the IC50 is 0.0001 to 1 µM against c-Kit kinase and less than 10000 nM in assay [1].

On to `CCOc1ccc(-c2[nH]c(C3(C)CCN(c4ncnc5[nH]c(-c6cnn(C(F)F)c6)cc45)CC3)nc2C)cc1C` [P-3245, 6-[1-(difluoromethyl)pyrazol-4-yl]-4-[4-[5-(4-ethoxy-3-methyl-phenyl)-4-methyl-1H-imidazol-2-yl]-4-methyl-1-piperidyl]-7H-pyrrolo[2,3-d]pyrimidine], for which the half-inhibitory concentration (IC50) against c-Kit kinase is 0.0001 to 1 µM; in assay [1], less than 10000 nM.

As to `CNC(=O)c1ccc(-c2cc3c(N4CCC(C)(c5nc(C)c(-c6ccc(OC(F)F)cc6)[nH]5)CC4)ncnc3[nH]2)cn1` [P-3246, 5-[4-[4-[5-[4-(difluoromethoxy)phenyl]-4-methyl-1H-imidazol-2-yl]-4-methyl-1-piperidyl]-7H-pyrrolo[2,3-d]pyrimidin-6-yl]-N-methyl-pyridine-2-carb oxamide], the half-inhibitory concentration (IC50) was 0.0001 to 1 µM against c-Kit kinase and less than 10000 nM in assay [1].

`CCOc1ccc(-c2[nH]c(C3(C)CCN(c4ncnc5[nH]c(-c6ccc(C(=O)NC)nc6)cc45)CC3)nc2C)cc1C` [P-3247, 5-[4-[4-[5-(4-ethoxy-3-methyl-phenyl)-4-methyl-1H-imidazol-2-yl]-4-methyl-1-piperidyl]-7H-pyrrolo[2,3-d]pyrimidin-6-yl]-N-methyl-pyridine-2-carb oxamide]: the IC50 at c-Kit kinase is 0.0001 to 1 µM; in assay [1], less than 10000 nM.

On to `Cc1nc(C2(C)CCN(c3ncnc4[nH]c(-c5ccc(N6CCOCC6)nc5)cc34)CC2)[nH]c1-c1ccc(OC(F)F)cc1` [P-3248, 4-[5-[4-[4-[5-[4-(difluoromethoxy)phenyl]-4-methyl-1H-imidazol-2-yl]-4-methyl-1-piperidyl]-7H-pyrrolo[2,3-d]pyrimidin-6-yl]-2-pyridyl]morpholine], for which the half-maximal inhibitory concentration (IC50) against c-Kit kinase is 0.0001 to 1 µM; in assay [1], less than 10000 nM.

Take `CCOc1ccc(-c2[nH]c(C3(C)CCN(c4ncnc5[nH]c(-c6ccc(N7CCOCC7)nc6)cc45)CC3)nc2C)cc1C` [P-3249, 4-[5-[4-[4-[5-(4-ethoxy-3-methyl-phenyl)-4-methyl-1H-imidazol-2-yl]-4-methyl-1-piperidyl]-7H-pyrrolo[2,3-d]pyrimidin-6-yl]-2-pyridyl]morpholine]: the concentration for half-maximal inhibition (IC50) against c-Kit kinase is 0.0001 to 1 µM; in assay [1], less than 10000 nM.
